Assay results: patent publication US20060153912A1 (BASF Aktiengesellschaft, priority 2002, published 2006)

How the values were obtained:
[1] = Color stability of 50% strength water/methanol solutions stirred at reflux (65° C.) in air, Gardner/Hazen color number
[2] = Color stability of 10% strength solutions in water/methanol (1:1), 7 h at 65° C., with and without stabilizer; type: physicochemical; conditions: 10% strength solution in water/methanol (1:1), no additive
Method: The experiments took place under the following conditions: 10% strength solutions in water/methanol (1:1)—7 h at 65° C.

[3] = 50% solution in 1:1 water/methanol, without additive, reaction time 0 h
[4] = 50% solution in 1:1 water/methanol, without additive, reaction time 1 h
[5] = 50% solution in 1:1 water/methanol, without additive, reaction time 7 h
[6] = 50% choline ascorbate solution, additive 1% by weight, reaction time 4 h
[7] = 50% choline ascorbate solution, additive 1% by weight, reaction time 3 h
[8] = 50% choline ascorbate solution, additive 1% by weight, reaction time 5 h

O=C1O[C@H]([C@@H](O)CO)C([O-])=C1O.[Na+] [Sodium ascorbate]
Color number Gardner [1, 3]: 0.1 | Color number Hazen [1, 3]: 26 | Color number Gardner [1, 4]: 0.1 | Color number Hazen [1, 4]: 28 | Color number Gardner [1, 5]: 0.1 | Color number Hazen [1, 5]: 31 | Color number Gardner [2]: 0.1 | Color number Hazen [2]: 31

C[N+](C)(C)CCO.O=C([O-])C(O)C(O)C(=O)O (stereo not drawn) [Choline bitartrate]
Color number Gardner [1, 3]: 0.1 | Color number Hazen [1, 3]: 27 | Color number Gardner [1, 4]: 0.1 | Color number Hazen [1, 4]: 30 | Color number Gardner [1, 5]: 0.1 | Color number Hazen [1, 5]: 28 | Color number Gardner [2]: 0.1 | Color number Hazen [2]: 32

OB(O)c1ccccc1 [Phenylboronic acid]
Color number Gardner [1, 6]: 2.7 | Color number Hazen [1, 6]: 589

O=C1O[C@H]([C@@H](O)CO)C(O)=C1O [L-(+)-Ascorbic acid]
Color number Gardner [1, 3]: 0.1 | Color number Hazen [1, 3]: 27 | Color number Gardner [1, 4]: 0.1 | Color number Hazen [1, 4]: 31 | Color number Gardner [1, 5]: 0.1 | Color number Hazen [1, 5]: 29 | Color number Gardner [2]: 0.1 | Color number Hazen [2]: 27

OP(O)O [Phosphorous acid]
Color number Gardner [1, 6]: 0.7 | Color number Hazen [1, 6]: 163

N[C@@H](CCC(=O)N[C@@H](CS)C(=O)NCC(=O)O)C(=O)O [Glutathione]
Color number Gardner [1, 6]: 0.4 | Color number Hazen [1, 6]: 122

N[C@@H](CS)C(=O)O [Cysteine]
Color number Gardner [1, 6]: 0.1 | Color number Hazen [1, 6]: 35

O=C(O)CCCC[C@@H](S)CCS (racemic) [Dihydrolipoic acid]
Color number Gardner [1, 6]: 0.2 | Color number Hazen [1, 6]: 53

C[N+](C)(C)CCO.[Cl-] [Choline chloride]
Color number Gardner [2]: 0.1 | Color number Hazen [2]: 35

O=c1[nH]c(=O)c2[nH]c(=O)[nH]c2[nH]1 [Uric acid]
Color number Gardner [1, 7]: 0.9 | Color number Hazen [1, 7]: 162 | Color number Gardner [1, 8]: 1.4 | Color number Hazen [1, 8]: 237

CC(=O)N[C@@H](CS)C(=O)O [N-Acetylcysteine]
Color number Gardner [1, 6]: 0.9 | Color number Hazen [1, 6]: 162
